According to patent US7745443B2 (Sanofi-Aventis Deutschland GmbH, priority 2002, dated 2010):

Biological target: binding of human von Willebrand factor to europium (Eu)-chelate-labeled chimeric GPIb-Fc protein (Homo sapiens, UniProt P04275+P07359)
Experiment: Von Willebrand Factor-GPIb Binding Assay (Eu based, botrocetin-induced)
Conditions: botrocetin-induced binding of Eu-chelate-labeled chimeric GPIb-Fc to immobilized human vWF; IC50 values as specified in the examples
Description: Activity of compounds of the formula I was shown by an Eu based binding assay in which the binding of human von Willebrand factor to an europium (Eu)-chelate-labeled chimeric GPIb-Fc protein was induced by botrocetin. The preparation of the Eu-chelate-labeled chimeric GPIb-Fc protein is described in detail in a patent application (Fukuchi et al., EP1074564).
A TBS (Tris buffered saline, 20 mM Tris-HCl (pH 7.4) and 0.15 M NaCl) (50 microl) containing human von Willebrand factor (2.5 microg/ml) was added to each well of 1 96-well plate, and the von Willebrand factor was immobilized as a solid phase overnight at 4 dec. Each well was washed once with TBS (150 microl) and blocked with TBS containing 5% BSA (bovine serum albumin) for about 3 hours. Each well of the plate was washed twice with TBS (150 microl), and then added with 25 microl of an assay buffer (Assay Buffer, 1244-106, produced by Wallac) with the compounds, further added with the assay buffer (25 microl) containing the europium (Eu)-chelate-labeled chimeric GPIb-Fc protein (100 ng/ml), labeled with Eu-N1-ITC (Eu-chelate of N^1-(p-isothiocyanatebenzyl)-diethlenetriamine-N^1,N^2,N^3,N^3-tetraacetic acid, 1244-302, produced by Wallac) and botrocetin (500 ng/ml), and left stand at room temperature for 2 hours. The preparation of the Eu-chelate-labeled chimeric GPIb-Fc protein is described in detail in a patent application (Fukuchi et al., EP1074564). Each well of the plate was washed 5 times with TBS (150 microl) containing 0.05% Tween-20, then added with 100 microl of a fluorescence enhancement buffer (Enhancement Solution, 1244-104, produced by Wallac), and shaken for 1 minute. Then, the amount of europium (Eu) was measured by using a 1420 ARVO multi-label counter (produced by Wallac, measurements time: 1 second).

Chain of binding of human von Willebrand factor to europium (Eu)-chelate-labeled chimeric GPIb-Fc protein (P04275 764-2813 limits assumed, change not shown): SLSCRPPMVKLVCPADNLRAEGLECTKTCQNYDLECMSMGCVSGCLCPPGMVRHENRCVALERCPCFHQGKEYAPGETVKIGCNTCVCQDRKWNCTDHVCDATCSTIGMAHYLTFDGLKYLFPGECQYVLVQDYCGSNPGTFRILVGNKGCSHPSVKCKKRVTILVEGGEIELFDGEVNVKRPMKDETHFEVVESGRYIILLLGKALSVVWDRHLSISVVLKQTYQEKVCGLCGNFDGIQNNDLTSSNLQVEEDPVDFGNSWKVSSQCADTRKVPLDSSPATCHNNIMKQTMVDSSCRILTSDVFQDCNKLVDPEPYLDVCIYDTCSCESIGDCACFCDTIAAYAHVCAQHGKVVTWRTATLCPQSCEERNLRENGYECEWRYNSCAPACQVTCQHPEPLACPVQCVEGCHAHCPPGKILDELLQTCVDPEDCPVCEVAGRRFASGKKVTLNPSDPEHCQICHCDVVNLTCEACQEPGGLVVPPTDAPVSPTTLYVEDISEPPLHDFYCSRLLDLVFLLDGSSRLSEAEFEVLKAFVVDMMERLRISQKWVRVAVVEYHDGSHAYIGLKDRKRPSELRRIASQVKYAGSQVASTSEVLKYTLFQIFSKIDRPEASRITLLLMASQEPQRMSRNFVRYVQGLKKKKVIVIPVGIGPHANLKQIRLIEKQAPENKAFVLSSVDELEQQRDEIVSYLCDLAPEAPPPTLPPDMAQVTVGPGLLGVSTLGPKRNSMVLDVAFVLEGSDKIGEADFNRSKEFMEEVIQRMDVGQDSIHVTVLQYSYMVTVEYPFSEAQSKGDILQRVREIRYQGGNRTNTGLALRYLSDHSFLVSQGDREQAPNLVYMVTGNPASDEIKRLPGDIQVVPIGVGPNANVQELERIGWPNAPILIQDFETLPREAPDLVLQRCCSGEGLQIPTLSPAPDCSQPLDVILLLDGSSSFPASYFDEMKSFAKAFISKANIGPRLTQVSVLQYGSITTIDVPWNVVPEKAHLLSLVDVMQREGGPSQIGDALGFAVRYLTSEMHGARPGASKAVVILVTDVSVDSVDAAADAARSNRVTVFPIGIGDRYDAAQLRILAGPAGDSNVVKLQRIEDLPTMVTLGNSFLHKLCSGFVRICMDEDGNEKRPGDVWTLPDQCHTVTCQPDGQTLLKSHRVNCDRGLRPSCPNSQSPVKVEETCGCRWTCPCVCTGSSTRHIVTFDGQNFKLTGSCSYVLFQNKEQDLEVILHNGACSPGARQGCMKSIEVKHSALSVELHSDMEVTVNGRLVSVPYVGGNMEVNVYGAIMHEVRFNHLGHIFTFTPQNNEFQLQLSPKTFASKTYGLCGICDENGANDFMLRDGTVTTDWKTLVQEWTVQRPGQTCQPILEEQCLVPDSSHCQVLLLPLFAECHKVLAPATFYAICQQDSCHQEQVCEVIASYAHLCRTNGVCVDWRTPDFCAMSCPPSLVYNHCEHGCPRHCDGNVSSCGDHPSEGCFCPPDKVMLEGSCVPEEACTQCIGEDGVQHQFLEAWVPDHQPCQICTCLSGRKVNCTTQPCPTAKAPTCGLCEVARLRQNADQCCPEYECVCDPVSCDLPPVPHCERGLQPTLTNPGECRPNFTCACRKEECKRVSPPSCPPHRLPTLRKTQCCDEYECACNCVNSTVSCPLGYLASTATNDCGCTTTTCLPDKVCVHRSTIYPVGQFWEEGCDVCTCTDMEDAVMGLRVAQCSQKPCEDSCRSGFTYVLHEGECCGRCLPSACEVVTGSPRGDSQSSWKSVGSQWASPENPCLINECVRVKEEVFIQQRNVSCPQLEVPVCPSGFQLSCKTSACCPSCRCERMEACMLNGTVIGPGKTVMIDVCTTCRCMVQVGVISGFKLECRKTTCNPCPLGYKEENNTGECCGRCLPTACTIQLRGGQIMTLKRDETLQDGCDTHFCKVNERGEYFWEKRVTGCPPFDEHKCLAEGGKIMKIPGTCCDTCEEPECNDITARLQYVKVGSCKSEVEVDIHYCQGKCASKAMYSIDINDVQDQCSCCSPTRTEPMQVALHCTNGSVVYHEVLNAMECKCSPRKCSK
Chain of binding of human von Willebrand factor to europium (Eu)-chelate-labeled chimeric GPIb-Fc protein (P07359 17-335 limits assumed, change not shown): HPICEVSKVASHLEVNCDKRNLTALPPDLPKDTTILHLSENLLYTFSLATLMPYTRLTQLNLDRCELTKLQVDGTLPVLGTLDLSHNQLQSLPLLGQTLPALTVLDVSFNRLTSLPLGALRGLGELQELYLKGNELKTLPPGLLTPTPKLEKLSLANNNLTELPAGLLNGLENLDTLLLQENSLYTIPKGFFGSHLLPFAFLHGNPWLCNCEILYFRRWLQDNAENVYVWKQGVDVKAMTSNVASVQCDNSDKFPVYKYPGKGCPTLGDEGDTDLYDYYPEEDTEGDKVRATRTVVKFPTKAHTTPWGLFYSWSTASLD

| IC50 [µM] | Compound |
| --- | --- |
| 19.8 | Cc1cc(N)c2cc(C(=O)Nc3ccc(NC(=O)c4ccc(OC5CCNCC5)cc4)cc3)ccc2n1 [Example 29, 4-Amino-N-(4-{[4-(4-piperidinyloxy)benzoyl]amino}phenyl)-2-methyl-6-quinolinecarboxamide] |
| 75.5 | Cc1cc(N)c2cc(NC(=O)c3ccc(CNC(=O)c4cnccn4)cc3)ccc2n1 [Example 4, Pyrazine-2-carboxylic acid 4-(4-amino-2-methyl-quinolin-6-ylcarbamoyl)-benzylamide] |
| 11.1 | Cc1cc(N)c2cc(C(=O)Nc3ccc(NC(=O)c4ccc(N)nc4)cc3)ccc2n1 [Example 22, 4-Amino-N-(4-{[(2-amino-5-pyridinyl)carbonyl]amino}phenyl)-2-methyl-6-quinolinecarboxamide] |
| 28.5 | Cc1cc(N)c2cc(C(=O)NC3CCC(NC(=O)c4ccc5nc(N)ccc5c4)CC3)ccc2n1 (centres unmarked) [Example 39, 4-Amino-N-(4-{[(2-amino-6-quinolinyl)carbonyl]amino}cyclohexyl)-2-methyl-6-quinolinecarboxamide] |
| 82.6 | Cc1cc(N)c2cc(C(=O)Nc3cccc(Nc4cc(C)[n+](C)c(N)n4)c3)ccc2n1 [Example 8, 2-Amino-4-[(3-{[(4-amino-2-methyl-6-quinolinyl)carbonyl]amino}phenyl)amino]-1,6-dimethylpyrimidin-1-ium] |
